Key:
Type in all cases: in vivo
[1] = test system: chickweed (common chickweed, Stellaria media); experiment: Test C postemergence greenhouse test, plant response rating 0-100; settings: for Plant response rating, Chickweed: scale 0 to 100
Text: (§1) At the same time, plants selected from these crop and weed species and also winter barley (Hordeum vulgare), bermudagrass (Cynodon dactylon), downy bromegrass (Bromus tectorum), canarygrass (Phalaris minor), cocklebur (common cocklebur, Xanthium strumarium), woolly cupgrass (Eriochloa villosa), deadnettle (henbit deadnettle, Lamium amplexicaule), green foxtail (Setaria viridis), goosegrass (Eleusine indica), surinam grass (Brachiaria decumbens), windgrass (Apera spica-venti), chickweed (common chickweed, Stellaria media), kochia (Kochia scoparia), and wild oat (Avena fatua), were planted in pots containing Redi-Earth® planting medium (Scotts Company, 14111 Scottslawn Road, Marysville, Ohio 43041) comprising spaghnum peat moss, vermiculite, wetting agent and starter nutrients and treated with postemergence applications of test chemicals formulated in the same manner. Plants ranged in height from 2 to 18 cm (1- to 4-leaf stage) for postemergence treatments. Treated plants and controls were maintained in a greenhouse for 13 to 15 days, after which time all species were compared to controls and visually evaluated. Plant response ratings, summarized in Table C, are based on a scale of 0 to 100 where 0 is no effect and 100 is complete control. A dash (-) response means no test result.

wild oat (Avena fatua) = experiment: as above; settings: for Plant response rating, Oat, Wild: scale 0 to 100
Text: as §1

kochia (Kochia scoparia) = experiment: as above; settings: for Plant response rating, Kochia: scale 0 to 100
Text: as §1

soybean (Glycine max) = experiment: Test C pre-/postemergence greenhouse test, plant response rating 0-100; settings: Postemergence; for Plant response rating, Soybean: scale 0 to 100
Method in brief: (§2)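 Pre- and postemergence greenhouse test: seeds sown in loam/sand and treated preemergence, or plants at 2–18 cm (1- to 4-leaf stage) in peat-based medium sprayed postemergence, with compounds in non-phytotoxic solvent plus surfactant. Visual rating versus untreated controls after 13–15 days, 0 (no effect) to 100 (complete control).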

[2] = test system: blackgrass (Alopecurus myosuroides); experiment: as above; settings: Postemergence; for Plant response rating, Blackgrass: scale 0 to 100
Method in brief: as §2

[3] = test system: giant foxtail (Setaria faberii); experiment: as above; settings: Postemergence; for Plant response rating, Foxtail, Giant: scale 0 to 100
Method in brief: as §2

[4] = test system: yellow nutsedge (Cyperus esculentus); experiment: as above; settings: Postemergence; for Plant response rating, Nutsedge, Yellow: scale 0 to 100
Method in brief: as §2

[5] = test system: johnsongrass (Sorghum halepense); experiment: as above; settings: Postemergence; for Plant response rating, Johnsongrass: scale 0 to 100
Method in brief: as §2

[6] = test system: winter wheat (Triticum aestivum); experiment: as above; settings: Postemergence; for Plant response rating, Wheat: scale 0 to 100
Method in brief: as §2

[7] = test system: pigweed (Amaranthus retroflexus); experiment: as above; settings: Postemergence; for Plant response rating, Pigweed: scale 0 to 100
Method in brief: as §2

[8] = test system: lambsquarters (Chenopodium album); experiment: as above; settings: Postemergence; for Plant response rating, Lambsquarters: scale 0 to 100
Method in brief: as §2

corn (Zea mays) = experiment: as above; settings: Postemergence; for Plant response rating, Corn: scale 0 to 100
Method in brief: as §2

[9] = test system: large (Lg) crabgrass (Digitaria sanguinalis); experiment: as above; settings: Postemergence; for Plant response rating, Crabgrass, Large: scale 0 to 100
Method in brief: as §2

## CCn1cc(C(=O)c2ccccc2)c(-c2cc(Cl)cc(Cl)c2)n1 [Compound 31, [3-(3,5-dichlorophenyl)-1-ethyl-1H-pyrazol-4-yl]phenylmethanone]
[1]; Stellaria media, post-emergence, 16 g ai/ha
  pest or weed control at 16 g/ha: 10%
[1]; Stellaria media, post-emergence, 31 g ai/ha
  pest or weed control at 31 g/ha: 70%
[1]; Stellaria media, post-emergence, 62 g ai/ha
  pest or weed control at 62 g/ha: 75%
[1]; Stellaria media, post-emergence, 125 g ai/ha
  pest or weed control at 125 g/ha: 80%
Wild oat (Avena fatua); Avena fatua, post-emergence, 16 g ai/ha
  pest or weed control at 16 g/ha: 0%
Wild oat (Avena fatua); Avena fatua, post-emergence, 62 g ai/ha
  pest or weed control at 62 g/ha: 0%
Wild oat (Avena fatua); Avena fatua, post-emergence, 125 g ai/ha
  pest or weed control at 125 g/ha: 0%
Kochia (Kochia scoparia); Bassia scoparia, post-emergence, 16 g ai/ha
  pest or weed control at 16 g/ha: 5%
Kochia (Kochia scoparia); Bassia scoparia, post-emergence, 62 g ai/ha
  pest or weed control at 62 g/ha: 40%
Kochia (Kochia scoparia); Bassia scoparia, post-emergence, 125 g ai/ha
  pest or weed control at 125 g/ha: 40%
Soybean (Glycine max); Glycine max, post-emergence, 16 g ai/ha
  plant injury at 16 g/ha: 0%
Soybean (Glycine max); Glycine max, post-emergence, 62 g ai/ha, read-out: Plant response rating (0 to 100), Soybean
  plant injury at 62 g/ha: 0%
Soybean (Glycine max); Glycine max, post-emergence, 125 g ai/ha, read-out: Plant response rating (0 to 100), Soybean
  plant injury at 125 g/ha: 5%
[2]; Alopecurus myosuroides, post-emergence, 16 g ai/ha
  pest or weed control at 16 g/ha: 0%
[2]; Alopecurus myosuroides, post-emergence, 31 g ai/ha, read-out: Plant response rating (0 to 100), Blackgrass
  pest or weed control at 31 g/ha: 0%
[2]; Alopecurus myosuroides, post-emergence, 62 g ai/ha, read-out: Plant response rating (0 to 100), Blackgrass
  pest or weed control at 62 g/ha: 0%
[2]; Alopecurus myosuroides, post-emergence, 125 g ai/ha, read-out: Plant response rating (0 to 100), Blackgrass
  pest or weed control at 125 g/ha: 0%
[3]; Setaria faberi, post-emergence, 16 g ai/ha
  pest or weed control at 16 g/ha: 5%
[3]; Setaria faberi, post-emergence, 31 g ai/ha, read-out: Plant response rating (0 to 100), Foxtail, Giant
  pest or weed control at 31 g/ha: 5%
[3]; Setaria faberi, post-emergence, 62 g ai/ha, read-out: Plant response rating (0 to 100), Foxtail, Giant
  pest or weed control at 62 g/ha: 5%
[3]; Setaria faberi, post-emergence, 125 g ai/ha, read-out: Plant response rating (0 to 100), Foxtail, Giant
  pest or weed control at 125 g/ha: 5%
[4]; Cyperus, post-emergence, 16 g ai/ha
  pest or weed control at 16 g/ha: 0%
[4]; Cyperus, post-emergence, 62 g ai/ha, read-out: Plant response rating (0 to 100), Nutsedge, Yellow
  pest or weed control at 62 g/ha: 5%
[4]; Cyperus, post-emergence, 125 g ai/ha, read-out: Plant response rating (0 to 100), Nutsedge, Yellow
  pest or weed control at 125 g/ha: 5%
[5]; Sorghum halepense, post-emergence, 16 g ai/ha
  pest or weed control at 16 g/ha: 0%
[5]; Sorghum halepense, post-emergence, 62 g ai/ha, read-out: Plant response rating (0 to 100), Johnsongrass
  pest or weed control at 62 g/ha: 5%
[5]; Sorghum halepense, post-emergence, 125 g ai/ha, read-out: Plant response rating (0 to 100), Johnsongrass
  pest or weed control at 125 g/ha: 10%
[6]; Triticum aestivum, post-emergence, 16 g ai/ha
  plant injury at 16 g/ha: 0%
[6]; Triticum aestivum, post-emergence, 62 g ai/ha, read-out: Plant response rating (0 to 100), Wheat
  plant injury at 62 g/ha: 0%
[6]; Triticum aestivum, post-emergence, 125 g ai/ha, read-out: Plant response rating (0 to 100), Wheat
  plant injury at 125 g/ha: 0%
[7]; Amaranthus retroflexus, post-emergence, 16 g ai/ha
  pest or weed control at 16 g/ha: 20%
[7]; Amaranthus retroflexus, post-emergence, 125 g ai/ha, read-out: Plant response rating (0 to 100), Pigweed
  pest or weed control at 125 g/ha: 75%
[8]; Chenopodium album, post-emergence, 16 g ai/ha
  pest or weed control at 16 g/ha: 25%
[8]; Chenopodium album, post-emergence, 62 g ai/ha, read-out: Plant response rating (0 to 100), Lambsquarters
  pest or weed control at 62 g/ha: 55%
[8]; Chenopodium album, post-emergence, 125 g ai/ha, read-out: Plant response rating (0 to 100), Lambsquarters
  pest or weed control at 125 g/ha: 80%
Corn (Zea mays); Zea mays, post-emergence, 16 g ai/ha
  Corn plant response rating (crop injury, 0 = no effect, 100 = complete kill) at 16 g/ha: 0%
Corn (Zea mays); Zea mays, post-emergence, 31 g ai/ha
  plant injury at 31 g/ha: 0%
Corn (Zea mays); Zea mays, post-emergence, 62 g ai/ha
  plant injury at 62 g/ha: 0%
Corn (Zea mays); Zea mays, post-emergence, 125 g ai/ha
  plant injury at 125 g/ha: 0%
[9]; Digitaria sanguinalis, post-emergence, 16 g ai/ha
  pest or weed control at 16 g/ha: 5%
[9]; Digitaria sanguinalis, post-emergence, 31 g ai/ha, read-out: Plant response rating (0 to 100), Crabgrass, Large
  pest or weed control at 31 g/ha: 5%
[9]; Digitaria sanguinalis, post-emergence, 62 g ai/ha, read-out: Plant response rating (0 to 100), Crabgrass, Large
  pest or weed control at 62 g/ha: 5%
[9]; Digitaria sanguinalis, post-emergence, 125 g ai/ha, read-out: Plant response rating (0 to 100), Crabgrass, Large
  pest or weed control at 125 g/ha: 5%

## Fc1ccc(NN=C(c2ccccc2)c2c[nH]nc2-c2cc(Cl)cc(Cl)c2)cc1 [Compound 35]
[1]; 62 g ai/ha
  Plant response rating (0 to 100), Chickweed: 98
[1]; 125 g ai/ha
  Plant response rating (0 to 100), Chickweed: 100
[1]; 250 g ai/ha
  Plant response rating, Chickweed: 100
[1]; 500 g ai/ha
  Plant response rating, Chickweed: 100
Wild oat (Avena fatua); 62 g ai/ha
  Plant response rating (0 to 100), Oat, Wild: 0
Wild oat (Avena fatua); 125 g ai/ha
  Plant response rating (0 to 100), Oat, Wild: 0
Wild oat (Avena fatua); 250 g ai/ha
  Plant response rating, Oat, Wild: 0
Wild oat (Avena fatua); 500 g ai/ha
  Plant response rating, Oat, Wild: 0
Kochia (Kochia scoparia); 62 g ai/ha
  Plant response rating (0 to 100), Kochia: 50
Kochia (Kochia scoparia); 125 g ai/ha
  Plant response rating (0 to 100), Kochia: 55
Kochia (Kochia scoparia); 250 g ai/ha
  Plant response rating, Kochia: 90
Kochia (Kochia scoparia); 500 g ai/ha
  Plant response rating, Kochia: 95
Soybean (Glycine max); 62 g ai/ha
  Plant response rating (0 to 100), Soybean: 10
Soybean (Glycine max); 125 g ai/ha
  Plant response rating (0 to 100), Soybean: 10
Soybean (Glycine max); 250 g ai/ha
  Plant response rating, Soybean: 10
Soybean (Glycine max); 500 g ai/ha
  Plant response rating, Soybean: 10
[2]; 62 g ai/ha
  Plant response rating (0 to 100), Blackgrass: 0
[2]; 125 g ai/ha
  Plant response rating (0 to 100), Blackgrass: 0
[2]; 250 g ai/ha
  Plant response rating, Blackgrass: 0
[2]; 500 g ai/ha
  Plant response rating, Blackgrass: 0
[3]; 62 g ai/ha
  Plant response rating (0 to 100), Foxtail, Giant: 0
[3]; 125 g ai/ha
  Plant response rating (0 to 100), Foxtail, Giant: 0
[3]; 250 g ai/ha
  Plant response rating, Foxtail, Giant: 0
[3]; 500 g ai/ha
  Plant response rating, Foxtail, Giant: 5
[4]; 62 g ai/ha
  Plant response rating (0 to 100), Nutsedge, Yellow: 0
[4]; 125 g ai/ha
  Plant response rating (0 to 100), Nutsedge, Yellow: 5
[4]; 250 g ai/ha
  Plant response rating, Nutsedge, Yellow: 5
[4]; 500 g ai/ha
  Plant response rating, Nutsedge, Yellow: 5
[5]; 62 g ai/ha
  Plant response rating (0 to 100), Johnsongrass: 0
[5]; 125 g ai/ha
  Plant response rating (0 to 100), Johnsongrass: 0
[5]; 250 g ai/ha
  Plant response rating, Johnsongrass: 0
[5]; 500 g ai/ha
  Plant response rating, Johnsongrass: 0
[6]; 62 g ai/ha
  Plant response rating (0 to 100), Wheat: 0
[6]; 125 g ai/ha
  Plant response rating (0 to 100), Wheat: 0
[6]; 250 g ai/ha
  Plant response rating, Wheat: 0
[6]; 500 g ai/ha
  Plant response rating, Wheat: 0
[7]; 62 g ai/ha
  Plant response rating (0 to 100), Pigweed: 85
[7]; 125 g ai/ha
  Plant response rating (0 to 100), Pigweed: 100
[7]; 250 g ai/ha
  Plant response rating, Pigweed: 100
[7]; 500 g ai/ha
  Plant response rating, Pigweed: 100
[8]; 62 g ai/ha
  Plant response rating (0 to 100), Lambsquarters: 98
[8]; 125 g ai/ha
  Plant response rating (0 to 100), Lambsquarters: 98
[8]; 250 g ai/ha
  Plant response rating, Lambsquarters: 100
[8]; 500 g ai/ha
  Plant response rating, Lambsquarters: 100
Corn (Zea mays); 62 g ai/ha
  Plant response rating (0 to 100), Corn: 0
Corn (Zea mays); 125 g ai/ha
  Plant response rating (0 to 100), Corn: 0
Corn (Zea mays); 250 g ai/ha
  Plant response rating, Corn: 5
Corn (Zea mays); 500 g ai/ha
  Plant response rating, Corn: 5
[9]; 62 g ai/ha
  Plant response rating (0 to 100), Crabgrass, Large: 5
[9]; 125 g ai/ha
  Plant response rating (0 to 100), Crabgrass, Large: 5
[9]; 250 g ai/ha
  Plant response rating, Crabgrass, Large: 5
[9]; 500 g ai/ha
  Plant response rating, Crabgrass, Large: 5
